Test results: patent US20240109853A1 (Shanghai Yao Yuan Biotechnology Co., Ltd., priority 2020, published 2024)
Where a name gives a salt, the structure may show the parent alone. Read-outs that look alike come from different tables or passages of the source.

Biological target: ALPK1 (Homo sapiens (Human), UniProt Q96QP1)
Assay: ALPK1 in vitro kinase assay (HTRF of TIFA phosphorylation)
Format: biochemical
Source text: In embodiments, a compound of Formula I, or a subembodiment described herein, is an inhibitor of ALPK1 as measured, for example, in an in vitro kinase assay, or an assay designed to measure the activation of downstream targets of ALPK1 pathway activation, for example NFkB transcriptional activation and the secretion of proinflammatory cytokines and chemokines, such as IL-8, which is also referred to as CXCL-8. In general, the computer program XL fit was used for data analysis, including non-linear regression analysis. The half maximal inhibitory concentration (IC50) was used as the measure of a compound's effectiveness in the assays. IC50 values were determined using the following logistic equation Y=min+(max−min)/(1+(X/IC50^−hillslpoe), where Y is the value at the compound concentration, X. The concentration response curve fitting was conducted using GraphPad Prism version 6.00 software.
ALPK1 kinase activity was measured in an in vitro assay using ADP-Heptose as the ALPK1 ligand and activator of its kinase activity and TIFA protein as the ALPK1 phosphorylation substrate. Since phosphorylated TIFA proteins oligomerize, Homogeneous Time-Resolved Fluorescence (HTRF) was used to measure protein:protein interaction between HA-tagged TIFA proteins as an indicator of TIFA phosphorylation.
In brief, dose-response studies were performed with HEK293 cells cultured in Dulbecco's Modified Eagle Medium (DMEM) supplemented 10% fetal bovine serum (FBS, Hyclone™) containing antibiotics (pen/strep, G418) in 384-well assay plates. Each well contained 0.1 mg TIFA, ALPK1 (2 nM final concentration in reaction mixture) and kinase buffer (100 mM of HEPES pH 7.4, 4 mM DTT, 40 mM MgCl2, 20 mM of β-Glycerol phosphate disodium salt, 0.4 mM of Na3VO4, 0.16 mg/mL). Titrations of the test compounds were prepared in dimethylsulphoxide (DMSO). The reaction was initiated by addition of ATP and ADP-Heptose.
For HTRF, samples were incubated with a Tb cryptate-labeled anti-HA antibody for capturing HA-tagged proteins according to the manufacturer's instructions (PerkinElmer™, CisBio™) and the fluorescence signal was quantified (Tecan Infinite F NANO+). HTRF signals were calculated as the HTRF ratio (ratio of fluorescence measured at 665 nm and 620 nm)×104 (thereby using the signal at 620 nm as an internal standard).
IC50 values were determined using 3- or 4-parameter logistic equation using GraphPad Prism version 6.00. The reference compound, A027, was used as a positive control for each plate.

[1] = ALPK1 2 nM, TIFA substrate, ADP-Heptose activator, HTRF readout

Sequence of ALPK1 (Q96QP1 whole entry): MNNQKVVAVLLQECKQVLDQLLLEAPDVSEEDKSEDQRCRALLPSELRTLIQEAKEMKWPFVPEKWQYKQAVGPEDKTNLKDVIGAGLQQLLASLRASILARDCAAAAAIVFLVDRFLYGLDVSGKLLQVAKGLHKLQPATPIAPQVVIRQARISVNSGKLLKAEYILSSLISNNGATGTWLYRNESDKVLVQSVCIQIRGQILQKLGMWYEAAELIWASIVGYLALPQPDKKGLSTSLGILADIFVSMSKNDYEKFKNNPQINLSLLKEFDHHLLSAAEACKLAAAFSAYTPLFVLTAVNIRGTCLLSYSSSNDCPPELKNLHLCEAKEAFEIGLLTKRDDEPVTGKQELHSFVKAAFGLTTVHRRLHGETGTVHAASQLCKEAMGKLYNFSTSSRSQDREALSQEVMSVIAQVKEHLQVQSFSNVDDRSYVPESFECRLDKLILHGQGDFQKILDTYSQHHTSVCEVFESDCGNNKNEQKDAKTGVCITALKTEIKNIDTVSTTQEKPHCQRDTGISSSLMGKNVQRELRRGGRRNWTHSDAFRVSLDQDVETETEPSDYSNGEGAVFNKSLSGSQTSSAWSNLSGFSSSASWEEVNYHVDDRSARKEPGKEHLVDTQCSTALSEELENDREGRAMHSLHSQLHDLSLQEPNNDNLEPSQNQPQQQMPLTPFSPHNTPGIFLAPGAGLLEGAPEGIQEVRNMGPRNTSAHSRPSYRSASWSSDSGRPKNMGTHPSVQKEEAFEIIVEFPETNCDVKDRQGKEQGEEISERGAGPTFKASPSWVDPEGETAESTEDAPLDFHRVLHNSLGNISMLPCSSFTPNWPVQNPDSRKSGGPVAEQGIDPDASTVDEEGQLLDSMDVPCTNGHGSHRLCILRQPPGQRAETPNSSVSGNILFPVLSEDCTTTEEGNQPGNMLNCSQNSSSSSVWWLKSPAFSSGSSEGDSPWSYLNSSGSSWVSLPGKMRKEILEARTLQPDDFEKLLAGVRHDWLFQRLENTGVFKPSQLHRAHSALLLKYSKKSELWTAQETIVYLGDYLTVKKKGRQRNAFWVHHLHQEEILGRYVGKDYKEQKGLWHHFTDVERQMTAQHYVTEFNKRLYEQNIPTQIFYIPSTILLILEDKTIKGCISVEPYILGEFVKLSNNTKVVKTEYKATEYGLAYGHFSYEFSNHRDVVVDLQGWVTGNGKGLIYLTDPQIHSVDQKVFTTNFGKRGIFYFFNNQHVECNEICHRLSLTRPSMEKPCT

Compound	IC50 [1] [µM]	IC50 [µM]
C#C[C@](C)(c1ccc(Cl)cc1)c1csc(NC(=O)c2ccc(N3CCNC(CO)C3)cc2)n1 (stereo partly drawn) [Example B078, N-(4-(2-(4-chlorophenyl)but-3-yn-2-yl)thiazol-2-y1)-4-(3-(hydroxymethyl)piperazin-1-yl)benzamide]	0.169	
Cc1ccc(C(C)(C)c2csc(NC(=O)c3ccc(CN4CCN(CCO)CC4)cc3)n2)cc1 [Example B058, 4-((4-(2-hydroxyethyl)piperazin-1-yl)methyl)-N-(4-(2-(p-tolyl)propan-2-yl)thiazol-2-yl)benzamide]	0.068	
C#CC(C)(c1ccc(Cl)cc1)c1c[nH]c(NC(=O)c2c(F)cc(N3CCNCC3)cc2F)n1 (stereo not drawn) [Example C052, N-(4-(2-(4-chlorophenyl)but-3-yn-2-yl)-1H-imidazol-2-yl)-2,6-difluoro-4-(piperazin-1-yl)benzamide]	0.044	
C#CC(C)(c1ccc(F)cc1)c1csc(NC(=O)c2c(F)cc(-c3c[nH]n(C)c3=O)cc2F)n1 (stereo not drawn) [Example B103, 2,6-difluoro-N-(4-(2-(4-fluorophenyl)but-3-yn-2-yl)thiazol-2-yl)-4-(2-methyl-3-oxo-2,3-dihydro-1H-pyrazol-4-yl)benzamide]	5.14	
C#CC(C)(c1ccc(Cl)cc1)c1csc(NC(=O)N(C)CCO)n1 (stereo not drawn) [Example A266, 3-(4-(2-(4-chlorophenyl)but-3-yn-2-yl)thiazol-2-yl)-1-(2-hydroxyethyl)-1-methylurea]		0.546
COc1ccc(C(C)(C)c2csc(NC(=O)c3ccc(CN4CCN(C)CC4)cc3)n2)cc1 [Example B017, N-(4-(2-(4-methoxyphenyl)propan-2-yl)thiazol-2-yl)-4-((4-methylpiperazin-1-yl)methyl)benzamide]	0.148	
COc1ccc(C(C)(C)c2csc(NC(=O)NCc3ccc(NCCO)cc3)n2)cc1 [Example A109, 1-(4-((2-hydroxyethyl)amino)ben-zyl)-3-(4-(2-(4-methoxyphenyl)propan-2-yl)thiazol-2-yl)urea]		0.146
C#CC(C)(c1ccc(Cl)cc1)c1csc(NC(=O)c2c(F)cc(N3CCNC(CO)C3)cc2F)n1 (stereo not drawn) [Example B083, N-(4-(2-(4-chlorophenyl)but-3-yn-2-yl)thiazol-2-yl)-2,6-difluoro-4-(3-(hydroxymethyl)piperazin-1-yl)benzamide]	0.078	
COc1ccc(C(C)(C)c2csc(NC(=O)c3ccc(OCCN4CCNCC4)cc3)n2)cc1 [Example B024, N-(4-(2-(4-methoxyphenyl)propan-2-yl)thiazol-2-yl)-4-(2-(piperazin-1-yl)ethoxy)benzamide]	0.116	
C#CC(C)(c1ccc(Cl)cc1)c1coc(NC(=O)c2c(F)cc(N3CCNCC3)cc2F)n1 (stereo not drawn) [Example C051, N-(4-(2-(4-chlorophenyl)but-3-yn-2-yl)oxazol-2-yl)-2,6-difluoro-4-(piperazin-1-yl)benzamide]	0.026	
CC(C)(c1ccc(F)cc1)c1csc(NC(=O)c2c(F)cc(N3CCNCC3)cc2F)n1 [Example C005, 2,6-difluoro-N-(4-(2-(4-fluorophenyl)propan-2-yl)thiazol-2-yl)-4-(piperazin-1-yl)benzamide]	0.006	
CC(C)(c1ccc(Br)cc1)c1csc(NC(=O)NCc2cnc(N3CCNC(=O)C3)c(F)c2)n1 [Example A112, 1-(4-(2-(4-bromophenyl)propan-2-yl)thiazol-2-yl)-3-((5-fluoro-6-(3-oxopiperazin-1-yl)pyridin-3-yl)methyl)urea]		0.334
COc1ccc(C(C)(C)c2csc(NC(=O)c3ccc(OCC(C)O)cc3)n2)cc1 (stereo not drawn) [Example B063, 4-(2-hydroxypropoxy)-N-(4-(2-(4-methoxyphenyl)propan-2-yl)thiazol-2-yl)benzamide]	0.245	
COc1ccc(C(C)(C)c2csc(NC(=O)NCc3ccc(N4CCC(N)C4)cc3)n2)cc1 (stereo not drawn) [Example A184, 1-(4-(3-aminopyrrolidin-1-yl)benzyl)-3-(4-(2-(4-methoxyphenyl)propan-2-yl)thiazol-2-yl)urea]		0.242
COc1ccc(C(C)(C)c2csc(NC(=O)c3ccc(C4CCNCC4)cc3)n2)cc1 [Example B047, N-(4-(2-(4-methoxyphenyl)propan-2-yl)thiazol-2-yl)-4-(piperidin-4-yl)benzamide hydrochloride]	0.128	
COc1ccc(C(C)(C)c2cnc(NC(=O)c3ccc(N4CCNCC4)c(F)c3)s2)cc1 [Example B038, 3-fluoro-N-(5-(2-(4-methoxyphenyl)propan-2-yl)thiazol-2-yl)-4-(piperazin-1-yl)benzamide]	0.216	
COc1ccc(C(C)(C)c2csc(NC(=O)c3ccc(N4CCN(CCO)CC4)nc3)n2)cc1 [Example B053, 6-(4-(2-hydroxyethyl)piperazin-1-yl)-N-(4-(2-(4-methoxyphenyl)propan-2-yl)thiazol-2-yl)nicotinamide]	0.104	
C#C[C@](C)(c1csc(NC(=O)c2c(F)cc(N3CCNCC3)cc2F)n1)c1ccc(Cl)cc1F (stereo in doubt) [Example C044, N-(4-(2-(4-chloro-2-fluorophenyl)but-3-yn-2-yl)thiazol-2-yl)-2,6-difluoro-4-(piperazin-1-yl)benzamide]	0.025	
COc1ccc(C(C)(C)c2csc(NC(=O)NCC(=O)CO)n2)cc1 [Example A074, 1-(3-hydroxy-2-oxopropyl)-3-(4-(2-(4-methoxyphenyl)propan-2-yl)thiazol-2-yl)urea]		0.061
COc1ccc(C(C)(C)c2csc(NC(=O)c3ccc(OC4CCN(CCO)CC4)cc3)n2)cc1 [Example B020, 4-((1-(2-hydroxyethyl)piperidin-4-yl)oxy)-N-(4-(2-(4-methoxyphenyl)propan-2-yl)thiazol-2-yl)benzamide]	0.17	
COc1ccc(C(C)(C)c2csc(NC(=O)c3ccc(N4CCC(N)C4)nc3)n2)cc1 (stereo not drawn) [Example B043, 6-(3-aminopyrrolidin-1-yl)-N-(4-(2-(4-methoxyphenyl)propan-2-yl)thiazol-2-yl)nicotinamide]	0.14	
CC(C)(c1ccc(Br)cc1)c1csc(NC(=O)NCc2ccc(N3CCCNCC3)c(F)c2)n1 [Example A197, 1-(4-(1,4-diazepan-1-yl)-3-fluorobenzyl)-3-(4-(2-(4-bromophenyl)propan-2-yl)thiazol-2-yl)urea]		0.067
C#C[C@@](C)(c1ccc(F)cc1)c1csc(NC(=O)c2ccc(N3CCNCC3CO)cc2)n1 (stereo in doubt) [Example B071, N-[4-[1-(4-fluorophenyl)-1-methyl-prop-2-ynyl]thiazol-2-yl]-4-[2-(hydroxymethyl)piperazin-1-yl]benzamide]	0.06	
COc1ccc(C(C)(C)c2csc(NC(=O)NCc3ccc(N4CCC(O)C4)cc3)n2)cc1 (stereo not drawn) [Example A069, 1-(4-(3-hydroxypyrrolidin-1-yl)benzyl)-3-(4-(2-(4-methoxyphenyl)propan-2-yl)thiazol-2-yl)urea]		0.269
C#CC(C)(c1ccc(Cl)cc1)c1csc(NC(=O)c2c(F)cc(N3CCN(C)CC3)cc2F)n1 (stereo not drawn) [Example C009, N-(4-(2-(4-chlorophenyl)but-3-yn-2-yl)thiazol-2-yl)-2,6-difluoro-4-(4-methylpiperazin-1-yl)benzamide]	0.007	
COc1ccc(C(C)(C)c2csc(NC(=O)c3ccc(N4CCC(N(C)C)C4)nc3)n2)cc1 (stereo not drawn) [Example B010, 6-(3-(dimethylamino)pyrrolidin-1-yl)-N-(4-(2-(4-methoxyphenyl)propan-2-yl)thiazol-2-yl)nicotinamide]	0.187	
COc1ccc(C(C)(C)c2csc(NC(=O)c3cccc(N4CCNCC4)c3)n2)cc1 [Example B004, N-(4-(2-(4-methoxyphenyl)propan-2-yl)thiazol-2-yl)-3-(piperazin-1-yl)benzamide]	0.211	
COc1ccc(C(C)(C)c2csc(NC(=O)c3ccc(N4CCC(N(C)C)C4)cc3)n2)cc1 (stereo not drawn) [Example B027, 4-(3-(dimethylamino)pyrrolidin-1-yl)-N-(4-(2-(4-methoxyphenyl)propan-2-yl)thiazol-2-yl)benzamide]	0.219	
C#C[C@@](C)(c1ccc(F)cc1)c1csc(NC(=O)c2c(F)cc(N3CCC(N)C3)cc2F)n1 (stereo in doubt) [Example B091, 4-(3-aminopyrrolidin-1-yl)-2,6-difluoro-N-(4-(2-(4-fluorophenyl)but-3-yn-2-yl)thiazol-2-yl)benzamide]	0.065	
C#C[C@@](C)(c1ccc(Cl)cc1)c1csc(NC(=O)c2c(F)cc(N3CCNCC3CO)cc2F)n1 (stereo in doubt) [Example B097, N-[4-[1-(4-chlorophenyl)-1-methyl-prop-2-ynyl]thiazol-2-yl]-2,6-difluoro-4-[2-(hydroxymethyl)piperazin-1-yl]benzamide]	0.119	
